*1 amine or outer side, *2 acyl side, *3 side chain or, on linkers, in order; H or OH if unused. Where a SMILES comes first, the peptide text is derived from it. Bridges are numbered along the chain shown (N, C = ends). [ ]: non-standard residue; d: D form. The star is where a group is joined. pTerphenylCO(4''-OnC5H11) = CCCCCOc1ccc(-c2ccc(-c3ccc(C(=O)*)cc3)cc2)cc1; Orn(4R-OH,5R-OH) = O=C([C@H](C[C@@H](O)[C@@H](O)N[*:3])N[*:1])[*:2]; hTyr(3S-OH,4S-OH) = N[C@H](C(=O)O)[C@H](O)[C@@H](O)c1ccc(O)cc1; Pro(3S-OH,4S-Me) = C[C@H]1CN[C@H](C(=O)O)[C@H]1O; Hyp = O=C(O)[C@@H]1C[C@@H](O)CN1
How the values were obtained:
[1] = Stability of Compound C1 in m-APBA at alkaline pH (HPLC main peak purity); type: physicochemical
Procedure: (§1) Unless indicated otherwise, all chemicals can be acquired from commercial sources (i.e., Aldrich Chemical, Sigma, etc.) in reagent grade or better. Centrifugation was performed using an IEC benchtop clinical centrifuge equipped with six-place swinging-bucket rotor (for samples > 1.5 ml) and an Eppendorf tabletop centri fuge model 5415C equipped with standard 18-place rotor (for samples ≤ 1.5 ml). HPLC analyses were performed using a Hewlett Packard Liquid Chromatograph Model 1090 equipped with a 0.46 x 25 cm Zorbax™ SB-C8 column. All injections were 10 µl, followed by gradient elution from 40-100% acetonitrile (AcN) over 25 minutes and UV detection at 280 nm. Unless otherwise stated, samples were diluted in 0.25 N acetic acid/AcN prior to injection to facilitate decomplexation and ensure solubility in the HPLC solvent system. All alkaline pH adjustments were made by addition of a 1:1 mixture of ammonium hydroxide and 50% sodium hydroxide. Measurements were taken with a Beckman φ40 pH meter calibrated with pH 7 and pH 10 standards.
Compound C1 was suspended at 100 mg/ml (65% potency: 65 mg/ml (57 mM) in either 250 mM m-APBA or water (control). Separate samples were adjusted to pH 8.0, 8.5, 9.0, 9.5 and 10.0. Aliquots for time-point analysis were removed and diluted 100-fold in 100 mM acetic acid/methanol prior to HPLC injection. Stability was assessed by analysis of main peak purity, since degradation products are known to elute within the HPLC chromatographic window.

[2] = Solubility of Compound C1 in the presence of m-APBA (suspension, centrifugation, HPLC of supernatant); type: physicochemical; conditions: for appearance of aqueous solution: 30 mg/ml
Procedure: as §1
Crude C1 was suspended at 50 mg/ml (65% potency: 32.5 mg/ml, or 28.5 mM) in 4 ml of either 100 mM m-APBA or 100 mM ammonium bicarbonate (control) at pH 5.0 and pH 9.0. The samples were stirred at room temperature for 2 hours, at which time aliquots were removed and assayed both before and after centrifugation for five minutes at […]. All samples were diluted 50-fold prior to HPLC analysis.
At low pH (≤ 8.0), solid suspensions of Compound C1 in m-APBA and in ammonium bicarbonate were visually identical. Both were opaque and contained varying amounts of solid, insoluble material. However, when the pH was adjusted to 9.0 dramatic differences in appearance between the two samples was observed within approximately 30 minutes. The aqueous ammonium bicarbonate control was beige in color and completely opaque; whereas, the sample containing m-APBA turned a transparent, dark brown. When the mixtures were subjected to centrifugation for 5 minutes at 16,000 x g and the resulting supernatants quantified by HPLC analysis, the concentration of C1 present in the m-APBA supernatant was 23.76 mg/ml (94% of that in the original suspension) and only 2.27 mg/ml (10% of the original suspension) was present in the ammonium bicarbonate control supernatant.

[3] = m-APBA replaced with boric acid (borate complex)

CCCCCOc1ccc(-c2ccc(-c3ccc(C(=O)N[C@H]4C[C@@H](O)[C@@H](O)NC(=O)[C@@H]5[C@@H](O)[C@@H](C)CN5C(=O)[C@H]([C@@H](C)O)NC(=O)[C@H]([C@H](O)[C@@H](O)c5ccc(O)cc5)NC(=O)[C@@H]5C[C@@H](O)CN5C(=O)[C@H]([C@@H](C)O)NC4=O)cc3)cc2)cc1 [Compound C1] ({pTerphenylCO(4''-OnC5H11)}-[Orn(4R-OH,5R-OH)]T[Hyp][hTyr(3S-OH,4S-OH)]T[Pro(3S-OH,4S-Me)]; lactam 1-C)
purity (main peak) ([1]; 250 mM m-APBA, pH 9.5, after 17 hours): > 70%
purity (main peak, of the total peak area) ([1]; aqueous control (water), pH 9.5, after 9 hours): less than 70%
chemical stability in comparison to the aqueous control ([1]; in the presence of m-APBA, alkaline pH): enhanced chemical stability
stability of complex [1, 3]: very stable
stability of complex ([1]; p-carboxyphenylboronic acid used instead of m-APBA): did not appear to be as stable
concentration in supernatant as % of the original suspension ([2]; 100 mM ammonium bicarbonate control, pH 9.0): 10%
solubility thermodynamic at 2 h ([2]; 100 mM ammonium bicarbonate control, pH 9.0, room temperature, crude C1 suspended at 50 mg/ml (32.5 mg/ml), after centrifugation, read-out: concentration of C1 present in the supernatant): 2270 µg/mL
concentration in supernatant as % of that in the original suspension ([2]; 100 mM m-APBA, pH 9.0): 94%
concentration of C1 present in the supernatant ([2]; 100 mM m-APBA, pH 9.0, room temperature, crude C1 suspended at 50 mg/ml (32.5 mg/ml), after centrifugation): 23760 µg/mL
appearance of aqueous solution ([2]; boronate complex): transparent solution
increase in solubility ([2]; in the presence of m-aminophenyl boronic acid at pH 9.0 in aqueous solution): 10 fold
solubility of complex [2, 3]: increased solubility
solubility of complex ([2]; m-APBA replaced with p-carboxyphenyl boronic acid (boronate complex)): increased solubility
appearance of aqueous solution ([2]; non-complexed): opaque slurry

Source: patent publication EP1107982B1, “[…] COMPLEXES OF 1,2-(CIS)-DIOL CYCLIC PEPTIDES” (Eli Lilly & Company, priority 1998, dated 2000)
